Data: ChEMBL document CHEMBL3885881, “DrugMatrix”

Species on record: Rattus norvegicus
Assay: DrugMatrix - Regimen: Daily Repeat
Format: toxicity, organism-based, Sprague-Dawley
Parameters: regimen Daily Repeat, gender Male, age 6-8 weeks
Settings: in vivo, po, route oral GAVAGE, […]; for ABSOLUTE BASOPHIL / BASOPHIL / NUCLEATED RED BLOOD CELLS / ABSOLUTE EOSINOPHIL / EOSINOPHIL / ERYTHROCYTE COUNT / HEMATOCRIT / HEMOGLOBIN / LEUKOCYTE COUNT / LYMPHOCYTE / MEAN CORPUSCULAR HEMOGLOBIN / MEAN CORPUSCULAR HEMOGLOBIN CONCENTRATION / MEAN CORPUSCULAR VOLUME / MONOCYTE / NEUTROPHIL / PLATELET COUNT / ABSOLUTE LYMPHOCYTE / ABSOLUTE MONOCYTE / ABSOLUTE SEGMENTED NEUTROPHIL: tissue Blood
[1] = 0 mg/kg, 72 h, dose level Control, time 3 day
[2] = 0 mg/kg, 120 h, dose level Control, time 5 day
[3] = 0 mg/kg, dose level Control, time 28 day
[4] = 0 mg/kg, tissue Plasma, dose level Control, time 28 day
[5] = 23 mg/kg, 72 h, dose level Low, time 3 day
[6] = 23 mg/kg, 72 h, tissue Plasma, dose level Low, time 3 day
[7] = 23 mg/kg, 120 h, dose level High, time 5 day
[8] = 23 mg/kg, 120 h, dose level Low, time 5 day
[9] = 23 mg/kg, 120 h, tissue Plasma, dose level High, time 5 day
[10] = 23 mg/kg, 120 h, tissue Plasma, dose level Low, time 5 day

Compound: CC1=C(CC(=O)O)c2cc(F)ccc2/C1=C\c1ccc([S+](C)[O-])cc1 (stereo not given)
- ABSOLUTE BASOPHIL [1]: 0 CELLS/uL
- BASOPHIL [1]: 0%
- NUCLEATED RED BLOOD CELLS [1]: 0 /100WBC
- ABSOLUTE BASOPHIL [2]: 0 CELLS/uL
- ABSOLUTE EOSINOPHIL [2]: 0 CELLS/uL
- BASOPHIL [3]: 0.42%
- EOSINOPHIL [3]: 0.58%
- ERYTHROCYTE COUNT [3]: 8.06 x10E6/uL
- HEMATOCRIT [3]: 48.44%
- HEMOGLOBIN [3]: 16.34 G/DL
- LEUKOCYTE COUNT [3]: 13.04 x10E3/uL
- LYMPHOCYTE [3]: 85.12%
- MEAN CORPUSCULAR HEMOGLOBIN [3]: 20.26 pg
- MEAN CORPUSCULAR HEMOGLOBIN CONCENTRATION [3]: 33.74 G/DL
- MEAN CORPUSCULAR VOLUME [3]: 60.1 fL
- MONOCYTE [3]: 1.44%
- NEUTROPHIL [3]: 11.28%
- PLATELET COUNT [3]: 1226 x10E3/uL
- ALANINE AMINOTRANSFERASE [4]: 28.6 u/L
- ALBUMIN [4]: 3.94 G/DL
- ALKALINE PHOSPHATASE [4]: 254.6 u/L
- ASPARTATE AMINOTRANSFERASE [4]: 67.8 u/L
- BLOOD UREA NITROGEN [4]: 10.4 mg/dL
- CHLORIDE [4]: 104.6 MEQ/L
- CHOLESTEROL [4]: 57.6 mg/dL
- CREATINE PHOSPHOKINASE [4]: 224.8 u/L
- CREATININE [4]: 0.4 mg/dL
- GLUCOSE [4]: 140.6 mg/dL
- PHOSPHORUS [4]: 10.66 mg/dL
- POTASSIUM [4]: 6.58 MEQ/L
- SODIUM [4]: 148.6 MEQ/L
- TOTAL BILIRUBIN [4]: 0.24 mg/dL
- TOTAL PROTEIN [4]: 6.64 G/DL
- ABSOLUTE BASOPHIL [5]: 0 CELLS/uL
- ABSOLUTE EOSINOPHIL [5]: 0 CELLS/uL
- ABSOLUTE LYMPHOCYTE [5]: 6660 CELLS/uL
- ABSOLUTE MONOCYTE [5]: 202 CELLS/uL
- ABSOLUTE SEGMENTED NEUTROPHIL [5]: 1671.33 CELLS/uL
- BASOPHIL [5]: 0%
- EOSINOPHIL [5]: 0%
- ERYTHROCYTE COUNT [5]: 4.91 x10E6/uL
- HEMATOCRIT [5]: 31.27%
- HEMOGLOBIN [5]: 12.6 G/DL
- LEUKOCYTE COUNT [5]: 8.53 x10E3/uL
- LYMPHOCYTE [5]: 79.33%
- MEAN CORPUSCULAR HEMOGLOBIN [5]: 25.63 pg
- MEAN CORPUSCULAR HEMOGLOBIN CONCENTRATION [5]: 40.27 G/DL
- MEAN CORPUSCULAR VOLUME [5]: 63.67 fL
- MONOCYTE [5]: 2.33%
- NEUTROPHIL [5]: 18.33%
- NUCLEATED RED BLOOD CELLS [5]: 0 /100WBC
- PLATELET COUNT [5]: 1080 x10E3/uL
- ALANINE AMINOTRANSFERASE [6]: 65.67 u/L
- ALBUMIN [6]: 3.97 G/DL
- ALKALINE PHOSPHATASE [6]: 429 u/L
- ASPARTATE AMINOTRANSFERASE [6]: 75.67 u/L
- BLOOD UREA NITROGEN [6]: 14.33 mg/dL
- CARBON DIOXIDE [6]: 38.33 mmol/L
- CHLORIDE [6]: 99.33 MEQ/L
- CHOLESTEROL [6]: 87 mg/dL
- CREATINE PHOSPHOKINASE [6]: 223.33 u/L
- CREATININE [6]: 0.18 mg/dL
- GLUCOSE [6]: 181 mg/dL
- LACTATE DEHYDROGENASE [6]: 60.67 u/L
- LIPASE [6]: 16 u/L
- PHOSPHORUS [6]: 9.23 mg/dL
- POTASSIUM [6]: 4.45 MEQ/L
- SODIUM [6]: 143.57 MEQ/L
- TOTAL BILIRUBIN [6]: 0.13 mg/dL
- TOTAL PROTEIN [6]: 5.8 G/DL
- URIC ACID [6]: 0.47 mg/dL
- BASOPHIL [7]: 0.28%
- EOSINOPHIL [7]: 0.82%
- ERYTHROCYTE COUNT [7]: 7.33 x10E6/uL
- HEMATOCRIT [7]: 47.1%
- HEMOGLOBIN [7]: 14.9 G/DL
- LEUKOCYTE COUNT [7]: 7.35 x10E3/uL
- LYMPHOCYTE [7]: 79.44%
- MEAN CORPUSCULAR HEMOGLOBIN [7]: 20.4 pg
- MEAN CORPUSCULAR HEMOGLOBIN CONCENTRATION [7]: 31.66 G/DL
- MEAN CORPUSCULAR VOLUME [7]: 64.4 fL
- MONOCYTE [7]: 1.92%
- NEUTROPHIL [7]: 16.36%
- PLATELET COUNT [7]: 1405.2 x10E3/uL
- ABSOLUTE BASOPHIL [8]: 0 CELLS/uL
- ABSOLUTE EOSINOPHIL [8]: 0 CELLS/uL
- ABSOLUTE LYMPHOCYTE [8]: 5718.33 CELLS/uL
- ABSOLUTE MONOCYTE [8]: 84 CELLS/uL
- ABSOLUTE SEGMENTED NEUTROPHIL [8]: 664.33 CELLS/uL
- BASOPHIL [8]: 0%
- EOSINOPHIL [8]: 0%
- ERYTHROCYTE COUNT [8]: 5.51 x10E6/uL
- HEMATOCRIT [8]: 34.03%
- HEMOGLOBIN [8]: 13.47 G/DL
- LEUKOCYTE COUNT [8]: 6.47 x10E3/uL
- LYMPHOCYTE [8]: 88.33%
- MEAN CORPUSCULAR HEMOGLOBIN [8]: 24.47 pg
- MEAN CORPUSCULAR HEMOGLOBIN CONCENTRATION [8]: 39.6 G/DL
- MEAN CORPUSCULAR VOLUME [8]: 61.87 fL
- MONOCYTE [8]: 1.33%
- NEUTROPHIL [8]: 10.33%
- NUCLEATED RED BLOOD CELLS [8]: 0.33 /100WBC
- PLATELET COUNT [8]: 949.67 x10E3/uL
- ALANINE AMINOTRANSFERASE [9]: 32.2 u/L
- ALBUMIN [9]: 3.8 G/DL
- ALKALINE PHOSPHATASE [9]: 308.4 u/L
- ASPARTATE AMINOTRANSFERASE [9]: 75.4 u/L
- BLOOD UREA NITROGEN [9]: 8.8 mg/dL
- CHLORIDE [9]: 109 MEQ/L
- CHOLESTEROL [9]: 63.8 mg/dL
- CREATINE PHOSPHOKINASE [9]: 287.2 u/L
- CREATININE [9]: 0.42 mg/dL
- GLUCOSE [9]: 131.8 mg/dL
- PHOSPHORUS [9]: 14.88 mg/dL
- POTASSIUM [9]: 6.36 MEQ/L
- SODIUM [9]: 151.6 MEQ/L
- TOTAL BILIRUBIN [9]: 0.18 mg/dL
- TOTAL PROTEIN [9]: 6.24 G/DL
- ALANINE AMINOTRANSFERASE [10]: 67.33 u/L
- ALBUMIN [10]: 4.17 G/DL
